Results taken from patent publication US6699716B2, “In vivo induction for enhanced function of isolated hepatocytes” (priority 1999, dated 2004).

Assays:
CYPIIB1 [1] = experiment: PROD conversion to resorufin by in vivo induced hepatocytes; set-up: species or system porcine; details: for Degree of isozyme activity increase over noninduced control: PROD substrate, hepatocytes induced in vivo
Method: (§1) Cells were isolated using a modification of the Seglen method which has been described earlier (Seglen, P., Preparation of isolated rat liver cells, In Meth. in Cell. Bio. (D M Prescott, ed.), vol. 13. Academic Press (NY, N.Y.), 1976.). Briefly, the exposed liver was cannulated and perfused in situ with cold Lactated Ringers (Baxter, Deerfield, Ill.) at 250 ml/minute before excision and transport to the lab. The liver was quickly warmed and perfused with 0.2% EDTA at 37° C. This was followed by perfusion of 1 mg/ml collagenase (Life Technologies, Grand Island, N.Y.) at 37° C. until digestion appeared complete (mean digestion 22±4 min). Further digestion was stopped with the addition of cold HBSS (BioWhittaker, Walkersville, Md.) supplemented with 10% NBCS (Hyclone, Logan, Utah). Undigested tissue and gall bladder were excised and the remainder of the tissue passed through 200 and 100 micron stainless steel sieves (Fisher Scientific, Pittsburgh, Pa.). The cell suspension was washed twice and the cell pellet resuspended in culture media. Viability was determined by Trypan blue exclusion and Calcein AM staining (Molecular Probes, Eugene, Oreg.). Hepatocytes derived from the isolation process following in vivo induction show lower viability when compared to control conditions (77% n=7 versus 89% n=40), yet the cells detoxify xenobiotics at a greater rate. Immediately after isolation, 10^6 cells were assayed for total protein with the BCA kit (Pierce Biochemical, Rockford, Ill.).
(§2) Cells were plated onto 60 mm tissue culture dishes at a density of 2×10^6 cells per dish (Corning, Corning, N.Y.) in Williams' E media supplemented with 1% NBCS (newborn calf serum), 4.5 g/L glucose, 0.5 U/ml bovine insulin, 7 ng/ml glucagon, 7.5 μg/ml hydrocortisone, 10 mM HEPES (Sigma), 20 ng/ml EGF, […] (Life Technologies), 10 IU/ml penicillin and 10 μg/ml streptomycin (BioWhittaker). Hepatocytes were incubated at 37° C. in humidified 10% CO2. Culture medium was changed on day 1 post-isolation and then every 2-3 days. Media samples taken at each change were stored for assay of albumin and urea.

CYPIA2 [2] = experiment: MROD conversion to resorufin by in vivo induced hepatocytes; set-up: species or system porcine; details: for Degree of isozyme activity increase over noninduced control: MROD substrate, hepatocytes induced in vivo, 10 to 15 mg/kg
Method: (§3) To measure increased isozyme activity in both in vivo and in vitro induced cultures compared to non-induced controls, both in vivo induced and in vitro induced cultures from Example 1 were incubated with EROD, MROD, PROD or BROD (Molecular Probes) at 5 μM (in Williams' E media without serum and phenol red). Dicumarol (80 μM, Sigma) was included in the incubation to limit cytosolic degradation of the resorufin end product. Samples were analyzed in a Turner 450 fluorometer at 540ex and 585em nm. Resorufin formation was quantified using a standard curve that was linear from 0.5 to 130 nM and data are expressed as net resorufin gain over background fluorescence. In this assay, conversion of the alkoxyresorufins to resorufin corresponds to an increase in fluorescence such that the ratio of fluorescences, or activity, corresponds directly to the level of P450 activity of a particular set of isoenzymes.

CYPIA1 [3] = experiment: EROD conversion to resorufin by in vivo induced hepatocytes; set-up: species or system porcine; details: for Degree of isozyme activity increase over noninduced control: EROD substrate, hepatocytes induced in vivo, 10 to 15 mg/kg
Method: as §1
as §2, with “Media samples taken at each change were stored for assay of albumin and urea.” left out

CYPIIB1 [4] = experiment: Diazepam clearance by in vivo induced hepatocytes; set-up: species or system porcine
Method: as §1, with “Ill.). […]” for “Ill.).”
Diazepam clearance was assayed in the cultures of Example 1 using a method similar to that of Jauregui et al. Xenobiotic induction of P-450 PB-4 (IIB1) and P-450c (IA1) and associated monooxygenase activities in primary cultures of adult rat hepatocytes. […] This reverse phase HPLC run was conducted at a flow rate of 1.0 ml/min through a micro-Bondpak C18 column (Waters) with absorbance set at 254 nm. […]

CYPIIB1 [5] = experiment: PROD conversion to resorufin by in vitro induced hepatocytes; assay type: cell-based, porcine
Method: (§4) For comparison, in vitro induced hepatocyte cultures were prepared. Hepatocytes were procured using the method described above but from non-induced pigs and then induced in culture. Cells were plated onto 60 mm tissue culture dishes (Corning, Corning, N.Y.) in Williams' E media supplemented with 1% NBCS (newborn calf serum), 4.5 g/L glucose, 0.5 U/ml bovine insulin, 7 ng/ml glucagon, 7.5 μg/ml hydrocortisone, 10 mM HEPES (Sigma), 20 ng/ml EGF, […] (Life Technologies), 10 IU/ml penicillin and 10 μ/ml streptomycin (BioWhittaker). […]
as §3, with “Dicumarol (80 μM, Sigma) was included in the incubation to limit cytosolic degradation of the resorufin end product.” left out

CYPIA2 [6] = experiment: MROD conversion to resorufin by in vitro induced hepatocytes; assay type: cell-based, porcine; details: in vitro induction 5 μM for 24 hours; two million hepatocytes, day 2 of culture
Method: as §4
as §3, with “Dicumarol (80 μM, Sigma) was included in the incubation to limit cytosolic degradation of the resorufin end product.” left out

CYPIA1 [7] = experiment: EROD conversion to resorufin by in vitro induced hepatocytes; assay type: cell-based, porcine
Method: For comparison, in vitro induced hepatocyte cultures were prepared. Hepatocytes were procured using the method described above but from non-induced pigs and then induced in culture. Cells were plated onto 60 mm tissue culture dishes (Corning, Corning, N.Y.) in Williams' E media supplemented with 1% NBCS (newborn calf serum), 4.5 g/L glucose, 0.5 U/ml bovine insulin, 7 ng/ml glucagon, 7.5 μg/ml hydrocortisone, 10 mM HEPES (Sigma), 20 ng/ml EGF, […] (Life Technologies), 10 IU/ml penicillin and 10 μ/ml streptomycin (BioWhittaker). Experimental conditions were treated with culture medium containing any one of the following: 2 mM phenobarbital (PB; Sigma) for 96 hours, 50 μM β-naphthoflavone (BNF; Sigma) for 24 hours, or 5 μM 3-methlycholanthrene (3-MC; Sigma) for 24 hours.
as §3

CYPIIB2 [8] = experiment: BROD conversion to resorufin by in vivo induced hepatocytes; set-up: species or system porcine
Method: as §1, §2

CYPIA2 [9] = experiment: 7-Ethoxycoumarin metabolism by in vivo induced hepatocytes; set-up: species or system porcine
CYPIA2 [10] = experiment: Lidocaine clearance by in vivo induced hepatocytes; set-up: species or system porcine; details: Lidocaine substrate (clearance), 40 to 80 mg/kg
Method: A series of in vivo induction studies utilized various doses and injection regimes ranging from 40 to 80 mg/kg on days −4 to −1 with phenobarbital in PBS; 3-methlycholanthrene (in DMSO or benzene);or, β-naphthoflavone (in DMSO) given at 5 to 15 mg/kg on days −3, −2 and/or −1 prior to surgical removal of the liver. Yorkshire/Hampshire crossbred pigs weighing 8.3±3.0 kg were obtained from E M Parsons (Hadley, Mass.). All injections of induction agents were administered into the peritoneal cavity.
Cells were isolated using a modification of the Seglen method which has been described earlier (Seglen, P., Preparation of isolated rat liver cells, In Meth. in Cell. Bio. (D M Prescott, ed.), vol. 13. Academic Press (NY, N.Y.), 1976.). […] Viability was determined by Trypan blue exclusion and Calcein AM staining (Molecular Probes, Eugene, Oreg.). […]
Lidocaine (Paddock Laboratories Inc., Minneapolis, Minn.) clearance was assayed using a modification of the protocol of Nyberg et al. Pharmacokinetic analysis verifies P450function in in vitro and in vivo application of a bioartificial liver, ASAIO, 39:M252-M256, 1993. […] The reverse phase HPLC was carried out with a flow rate of 1 ml/minute on a Microsorb C8 column (Rainin Instrument Co., Woburn, Mass.) at room temperature and monitored at 214 nm. […]

CYPIIB2 [11] = experiment: BROD conversion to resorufin by in vitro induced hepatocytes; assay type: cell-based, porcine
Method: as §4
as §3, with “Dicumarol (80 μM, Sigma) was included in the incubation to limit cytosolic degradation of the resorufin end product.” left out

[12] = tested on: CYPIIB2 and CYPIIB1 isozymes; experiment: Maintenance of isozyme function four days after plating of in vivo induced hepatocytes; details: in vivo induced with 40 to 80 mg/kg once each day, 4 doses
Method: as §3

[13] = three daily injections in vivo, day one of culture, 2x10^6 cells on 60 mm dish

Question: With `Cc1ccc2cc3c(ccc4ccccc43)c3c2c1CC3` [3-Methylcholanthrene, 3-methylcholanthrene] as the molecule, how does the “Degree of isozyme activity increase over noninduced control” value (shortened to “Degree of isozyme activity increase”) (CYPIIB1 [1]; 10 to 15 mg/kg) read?
Answer: 2 to 10-fold

Question: And the “upregulation of CYPIIB1 (PROD)” value (CYPIIB1 [1]; in vivo administration)?
Answer: 8.4 fold

Question: And the “Degree of isozyme activity increase” value (CYPIA2 [2])?
Answer: 2 to 10-fold

Question: And the “increase over noninduced controls” value (CYPIA2 [2]; in vivo induction, MROD)?
Answer: 7.6 fold

Question: And the “Degree of isozyme activity increase” value (CYPIA1 [3])?
Answer: 10 to 20-fold

Question: And the “increase over noninduced controls” value (CYPIA1 [3]; in vivo induction, EROD)?
Answer: 24 fold

Question: What about the “Degree of isozyme activity increase” value (CYPIIB1 [4]; Diazepam substrate (clearance), 10 to 15 mg/kg) of the same molecule?
Answer: 2 to 10-fold

Question: What about the “Degree of isozyme activity increase” value (CYPIIB1 [4]; Diazepam substrate (clearance), 10 to 15 mg/kg, listed as 3-methlycholanthrene) of the same molecule?
Answer: 2 to 10 fold

Question: What about the “effect on CYPIIB1 (upregulation)” value (CYPIIB1 [5]; in vitro induction) of the same molecule?
Answer: not observed

Question: And the “conversion rate relative to control rate” value (CYPIA2 [6])?
Answer: 4 fold

Question: And the “conversion rate relative to control rate” value (CYPIA1 [7]; in vitro induction 5 μM for 24 hours, two million hepatocytes, day 2 of culture)?
Answer: 18 fold

Question: With `O=c1cc(-c2ccccc2)oc2ccc3ccccc3c12` [Beta-Naphthoflavone, beta-naphthoflavone] as the molecule, how does the “Degree of isozyme activity increase” value (CYPIA2 [2]) read?
Answer: 2 to 10-fold

Question: What about the “Degree of isozyme activity increase” value (CYPIA1 [3]) of the same molecule?
Answer: 2 to 10-fold

Question: What about the “increase in function over control metabolic conversion of EROD” value (CYPIA1 [7]; in vitro induction 24 hours, 50 μM) of the same molecule?
Answer: 14.8 fold

Question: What about the “resorufin formed per minute” value (CYPIA1 [7]; in vitro induction 24 hours, 50 μM, EROD, control 0.27 nM) of the same molecule?
Answer: 4.0 nM

Question: What does the source list for `CCC1(c2ccccc2)C(=O)NC(=O)NC1=O` [Phenobarbital, phenobarbital]?
Answer: Degree of isozyme activity increase over noninduced control (CYPIIB2 [8]; BROD substrate, hepatocytes induced in vivo, 40 to 80 mg/kg): 20 to 100-fold; rate of resorufin formation from the BROD substrate (CYPIIB2 [8]; in vivo induction, day 1): approximately 10.4 nM resorufin per minute; increase in function following in vivo induction (CYPIIB2 [8]; [13]): 70 fold; rate relative to average control rate of resorufin formed on day 1 from BROD (CYPIIB2 [8]; versus control 0.15 nM per minute): 69 times; Degree of isozyme activity increase over noninduced control (CYPIIB1 [1]; 40 to 80 mg/kg): 2 to 40-fold; upregulation following in vivo induction (CYPIIB1 [1]; [13]): 38 fold; Degree of isozyme activity increase over noninduced control (CYPIA2 [9]; 7-EC substrate, hepatocytes induced in vivo, 40 to 80 mg/kg): 20 to 50-fold; umbelliferone production rate (CYPIA2 [9]; in vivo induced, 24 hours after adding 7-ethoxycoumarin, noninduced 2.58±1.9): 346±41.4 nM per hour; Degree of isozyme activity increase over noninduced control (CYPIA2 [10]): 10 to 20-fold; Degree of isozyme activity increase over noninduced control (CYPIA2 [10]; listed as phenobarbital): 10 to 20 fold; Degree of isozyme activity increase over noninduced control (CYPIIB1 [4]; Diazepam substrate, 40 to 80 mg/kg): 20 to 50-fold; increase in function over noninduced controls (CYPIIB2 [11]; in vitro induction 96 hours (2 mM), BROD, 3 hours incubation, day 4 of culture): 8.4 fold; rate of resorufin formation from the BROD substrate (CYPIIB2 [11]; in vitro induction, day 4): about 0.33 nM resorufin formed per minute; higher rate of PROD metabolism following treatment (CYPIIB1 [5]; in vitro induction 96 hours (2 mM), PROD, 3 hours incubation): 3 fold; reduction of cytochrome P450 activity four days after plating [12]: about 50%
